Columns and labels:
[1] = target: T1, Thymidine phosphorylase (Rattus norvegicus) (UniProt Q5FVR2); assay: Inhibition of Sprague-Dawley rat lymphoma thymidine phosphorylase assessed as ratio of phosphorolysis in presence of drug to control at 10 umol/l
T1 sequence (whole entry): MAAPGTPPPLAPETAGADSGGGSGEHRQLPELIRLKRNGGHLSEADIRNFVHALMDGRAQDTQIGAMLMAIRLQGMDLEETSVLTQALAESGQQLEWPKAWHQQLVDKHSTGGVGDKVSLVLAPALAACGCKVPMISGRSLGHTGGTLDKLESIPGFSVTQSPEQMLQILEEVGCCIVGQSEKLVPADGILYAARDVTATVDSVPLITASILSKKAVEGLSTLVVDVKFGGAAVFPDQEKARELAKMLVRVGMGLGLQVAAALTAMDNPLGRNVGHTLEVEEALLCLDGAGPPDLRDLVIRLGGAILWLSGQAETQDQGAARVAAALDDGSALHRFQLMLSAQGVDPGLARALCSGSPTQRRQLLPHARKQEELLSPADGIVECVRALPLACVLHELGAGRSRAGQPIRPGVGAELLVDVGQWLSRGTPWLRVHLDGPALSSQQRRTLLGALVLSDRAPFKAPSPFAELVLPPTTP

[2] = target: Thymidine phosphorylase (Escherichia coli K-12) (UniProt P07650); assay: Inhibition of Escherichia coli thymidine phosphorylase assessed as ratio of phosphorolysis in presence of drug to control at 10 umol/l
Sequence of Thymidine phosphorylase (Escherichia coli K-12) (P07650 whole entry, looked up): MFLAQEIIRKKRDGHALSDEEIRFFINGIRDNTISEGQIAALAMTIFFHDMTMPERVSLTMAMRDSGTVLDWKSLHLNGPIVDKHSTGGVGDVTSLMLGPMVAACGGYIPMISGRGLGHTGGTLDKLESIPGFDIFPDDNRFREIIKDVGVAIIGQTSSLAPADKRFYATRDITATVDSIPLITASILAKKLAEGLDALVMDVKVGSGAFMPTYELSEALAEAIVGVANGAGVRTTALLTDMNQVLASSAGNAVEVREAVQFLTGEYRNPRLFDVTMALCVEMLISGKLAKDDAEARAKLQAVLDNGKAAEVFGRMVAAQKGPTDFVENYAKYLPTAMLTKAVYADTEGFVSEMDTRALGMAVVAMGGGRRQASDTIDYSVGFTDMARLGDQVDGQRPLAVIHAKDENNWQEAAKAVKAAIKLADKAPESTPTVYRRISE

| SMILES | Ratio [1] | Ratio [2] |
| --- | --- | --- |
| Cc1c[nH]c(=O)n(C[C@@H](CF)OCP(=O)(O)O)c1=O |  | 0.93 |
| Cc1c[nH]c(=O)n(CCOCP(=O)(O)O)c1=O | 1.44 | 1.07 |

Results, then the compound that gave them:

| Ratio [1] | Ratio [2] | SMILES |
| --- | --- | --- |
| 0.75 | 0.98 | Cc1c[nH]c(=O)n(C[C@H](CF)OCP(=O)(O)O)c1=O |
|  | 0.94 | Cc1c[nH]c(=O)n(C[C@@H](CO)OCP(=O)(O)O)c1=O |
| 0.78 | 1.01 | Cc1c[nH]c(=O)n(C[C@H](CO)OCP(=O)(O)O)c1=O |

Source: ChEMBL document CHEMBL1143866, “Syntheses of N3-substituted thymine acyclic nucleoside phosphonates and a comparison of their inhibitory effect towards thymidine phosphorylase” (Bioorg Med Chem Lett, 2008)
